{"source": "paper PMC12730333", "about": "(Biology, 2025)", "key": {"[1]": {"test_system": "promastigote forms of Leishmania amazonensis PH8 strain", "assay": "Leishmanicidal activity assay on promastigotes (Alamar Blue, 24 h)", "assay_type": "cell-based", "settings": "Leishmania amazonensis, 10^6 parasites/mL", "description": "Promastigote forms of Leishmania amazonensis (IFLA/BR/1967/PH8) were obtained from the Instituto Oswaldo Cruz Leishmania collection (CLIOC/Fiocruz). These cultures were maintained in Schneider’s Insect Medium, supplemented with 20% FBS and 1 μL/mL of Pen/Str at 26 °C. In vitro passages were conducted weekly, with promastigotes harvested during the late logarithmic phase for experiments on the 5th day of growth (Figure S1A).\nMT was employed as the reference drug."}, "[2]": {"assay": "Cytotoxicity assay (Alamar Blue, 24 h) on L929 fibroblasts", "assay_type": "cell-based, murine", "settings": "mouse, L929 fibroblasts", "description": "(§1) HepG2 cells (human hepatocellular carcinoma), VERO cells (African green monkey kidney), and J774.G8 macrophages (murine reticulosarcoma) were maintained in DMEM medium, supplemented with 10% FBS, 1% Pen/Str at 37 °C and 5% CO2 [70, 71]. For the cultivation of L929 fibroblasts (murine fibrosarcoma), RPMI 1640 medium without phenol red, supplemented with 2 mM L-glutamine, 10% FBS, and 1% Pen/Str, was used and maintained under the same conditions of temperature and CO2 as above.\n(§2) J774.G8, VERO (10^5 cells/well), HepG2, L929 (0.5 × 10^5 cells/well) cells, and MPMs (3 × 10^5 cells/well) were centrifuged, resuspended in medium, plated in 96-well microplates, and incubated for 24 h under cultivation conditions. Subsequently, they were exposed to different concentrations of the compounds, serially diluted in medium to a final volume of 100 µL/well, and incubated for 24 h at 37 °C and 5% CO2. Cell viability was then assessed using the AB, and data were acquired by spectrophotometry. […] Untreated cells were used as negative controls, and cells exposed to the reference compound (MT) were used as positive controls. The Selectivity Index (SI) was calculated using the ratio SI = CC50 (mammalian cells)/IC50 (promastigote or amastigote forms of L. amazonensis)."}, "[3]": {"assay": "Cytotoxicity assay (Alamar Blue, 24 h) on HepG2 cells", "assay_type": "cell-based, human", "settings": "human, HepG2 cells", "description": "as §1, §2"}, "HepG2 cells": {"test_system": "HepG2 cells", "assay": "Cytotoxicity assay (Alamar Blue, 24 h) on HepG2 cells", "assay_type": "cell-based, human", "settings": "0.5 × 10^5 cells/well", "description": "as §1, §2"}, "[4]": {"assay": "Cytotoxicity assay (Alamar Blue, 24 h) on VERO cells", "assay_type": "cell-based, African green monkey", "settings": "African green monkey, VERO cells", "description": "as §1, §2"}, "[5]": {"assay": "Cytotoxicity assay (Alamar Blue, 24 h) on J774.G8 macrophages", "assay_type": "cell-based, murine", "settings": "mouse, J774.G8 macrophages", "description": "as §1, §2"}, "[6]": {"assay": "Cytotoxicity assay (Alamar Blue, 24 h) on murine peritoneal macrophages", "assay_type": "cell-based, Swiss Webster mice", "settings": "male, Swiss Webster, mouse, murine peritoneal macrophages (MPMs, primary cells), 3 × 10^5 cells/well", "description": "Murine peritoneal macrophages—MPMs (primary cells)—were isolated from male Swiss Webster mice stimulated with 1 mL of 3% Brewer’s thioglycollate medium, administered intraperitoneally. After 96 h, the animals were euthanized, and the MPMs were collected by peritoneal lavage with approximately 10 mL of RPMI 1640 medium. The cell suspension was centrifuged at 382× g for 10 min, and the pellet was resuspended in medium supplemented with 5% FBS, 1% Pen/Str, and 2 mM L-glutamine. All cell cultures were maintained at 37 °C and 5% CO2 [73]. For the experiments, all cell types were cultured until confluency.\nas §2"}, "[7]": {"test_system": "promastigote forms of Leishmania amazonensis PH8 strain", "assay": "ROS production by flow cytometry, H2DCFDA, promastigotes", "assay_type": "cell-based", "settings": "exposed to IC50 (AA 10 µM), 24 h"}, "[8]": {"test_system": "ex vivo amastigote forms of L. amazonensis LTB0016 strain", "assay": "ROS production by flow cytometry, H2DCFDA, ex vivo amastigotes", "assay_type": "cell-based, Leishmania amazonensis", "settings": "exposed to IC50 (AA 10 µM), 24 h"}, "[9]": {"test_system": "promastigote forms of Leishmania amazonensis PH8 strain", "assay": "Preliminary MB concentration assessment on promastigotes, Neubauer chamber counting, 72 h", "assay_type": "cell-based", "settings": "3.13–200 μM tested", "description": "Deyvison Rhuan Vasco-dos-Santos, Juliana Almeida-Silva, Ludmila Ferreira de Almeida Fiuza,\nNatalia Vacani-Martins, Zênis Novais da Rocha, Maria de Nazaré Correia Soeiro, Andrea Henriques-Pons,\nEduardo Caio Torres-Santos and Marcos André Vannier-Santos\nEvaluation of parasite proliferation after 24 h (B2), 48 h (B3), and 72 h (B4) are shown. Viability was\nassessed by counting in a Neubauer chamber. Data represents mean ± SD. (*) p < 0.05 when\ncompared to negative control by ANOVA and Tukey’s post-test. […]"}, "[10]": {"test_system": "Leishmania amazonensis promastigote forms (PH8 strain)", "protocol": "(§3) Promastigotes were kept at 26 °C, whereas amastigotes were kept at 32 °C. After 24 h, parasite viability was assessed using the AB colorimetric method, and the data were analyzed using a spectrophotometer as previously described [74]. […] Wells with medium and without parasites were used as blanks, and wells with medium and untreated parasites were used as negative controls. MT was employed as the reference drug."}, "promastigotes": {"test_system": "promastigotes", "settings": "MB without light treatment; cited from earlier work"}, "[11]": {"test_system": "fibroblasts and macrophages", "parameters": "method as in PMID 38917757", "settings": "MB without light treatment; cited from earlier work"}, "L. amazonensis": {"test_system": "L. amazonensis", "parameters": "method as in Cabral et al. 136", "settings": "MB treatment with PDT; ref Cabral et al. 136; cited from earlier work"}, "[12]": {"test_system": "ex vivo amastigote forms of Leishmania amazonensis LTB0016 strain", "assay": "Cell death by flow cytometry, 7-AAD, ex vivo amastigotes", "settings": "IC50, 24 h, mean ± SD"}, "[13]": {"test_system": "promastigote forms of Leishmania amazonensis PH8 strain", "assay": "Cell death by flow cytometry, Annexin V/PI, promastigotes", "settings": "200 μM, 24 h, preliminary assay (Figure S5); control 99.81%"}, "[14]": {"test_system": "ex vivo amastigote forms of L. amazonensis LTB0016 strain", "assay": "Leishmanicidal activity assay on ex vivo amastigotes (Alamar Blue, 24 h)", "settings": "Leishmania amazonensis, 24 h, read-out: IC50 Ama.", "quoted_text": "Ex vivo amastigote forms of L. amazonensis (MHOM/BR/77/LTB0016) were harvested and purified from lesions of male BALB/c mice. For this, a suspension containing 10^6 amastigotes was inoculated subcutaneously into the intraplantar region of the hind paw. After 30 days, the animals were euthanized, and their paws were excised and rinsed in 70% ethanol. The epidermis and necrotic tissues were mechanically dissociated. Subsequently, the paws were placed in Petri dishes containing RPMI 1640 medium supplemented with 5% FBS and 2% Pen/Str. […] The supernatant was transferred to another tube, homogenized with a syringe, and centrifuged at 764× g for another 15 min. The supernatant was discarded, and the pellet was resuspended in RPMI 1640 medium [69].\nas §3"}, "[15]": {"test_system": "promastigote forms of Leishmania amazonensis PH8 strain", "assay": "Mitochondrial membrane potential (ΔΨm) by flow cytometry, TMRE, promastigotes", "settings": "exposed to IC50, 24 h"}, "[16]": {"test_system": "ex vivo amastigote forms of L. amazonensis LTB0016 strain", "assay": "Mitochondrial membrane potential (ΔΨm) by flow cytometry, TMRE, ex vivo amastigotes"}, "[17]": {"settings": "lower concentrations (37–100 μM)"}, "[18]": {"settings": "exposed to IC50, 24 h, (MT − MC)/MC"}}, "note": "Marks after values point to notes of the source that are not given here."}
{"molecule": "CN(C)c1ccc2nc3ccc(=[N+](C)C)cc-3sc2c1", "note": "[MB, methylene blue, reference compound]", "values": [{"measurement": "IC50", "setting": "[1]", "result": "61.4 ± 4.41", "unit": "µM"}, {"measurement": "CC50 at 24 h", "setting": "[2]; 0.5 × 10^5 cells/well", "result": "322 ± 3.74", "unit": "µM"}, {"measurement": "viability at 24 h", "setting": "[2]; lower concentrations (37–100 μM), read-out: viability of L929 cells", "result": "> 50", "unit": "%"}, {"measurement": "CC50 at 24 h", "setting": "[3]; 0.5 × 10^5 cells/well", "result": "> 70", "unit": "µM"}, {"measurement": "viability at 24 h", "setting": "[3]; [17]", "result": "> 50", "unit": "%"}, {"measurement": "CC50", "setting": "HepG2 cells", "result": "96 ± 3.28", "unit": "µM"}, {"measurement": "CC50 at 24 h", "setting": "[4]; 10^5 cells/well", "result": "141 ± 5.58", "unit": "µM"}, {"measurement": "viability at 24 h", "setting": "[4]; [17]", "result": "> 50", "unit": "%"}, {"measurement": "CC50 at 24 h", "setting": "[5]; 10^5 cells/well, read-out: CC50 J744.G8", "result": "206 ± 9.19", "unit": "µM"}, {"measurement": "viability at 24 h", "setting": "[5]; lower concentrations (37–100 μM), read-out: viability of J774.G8 cells", "result": "> 50", "unit": "%"}, {"measurement": "CC50 at 24 h", "setting": "[6]", "result": "36 ± 3.69", "unit": "µM"}, {"measurement": "H2DCFDA MFI, Promastigotes High Population", "setting": "[7]", "result": "1,658,186.80 *"}, {"measurement": "H2DCFDA MFI, Promastigotes Low Population", "setting": "[7]", "result": "26,534.03"}, {"measurement": "H2DCFDA MFI, Ex Vivo Amastigotes High Population", "setting": "[8]", "result": "140,636.20"}, {"measurement": "H2DCFDA MFI, Ex Vivo Amastigotes Low Population", "setting": "[8]", "result": 3151.50}, {"measurement": "VIROS, Ex Vivo Amastigotes High Population", "setting": "[8]; MT/MC", "result": "0.90 ± 0.29"}, {"measurement": "VIROS, Ex Vivo Amastigotes Low Population", "setting": "[8]; MT/MC", "result": "1.28 ± 0.46"}, {"measurement": "concentration from which significant reduction (p < 0.05) at 48 h", "setting": "[9]; 48 h", "result": "≥ 50", "unit": "µM"}, {"measurement": "concentration from which total viability loss at 72 h", "setting": "[9]; 72 h", "result": "≥ 12.50", "unit": "µM"}, {"measurement": "proliferation of promastigotes over 24 to 168 h", "setting": "[10]; exposed to IC50", "result": "total inhibition from 96 h"}, {"measurement": "time from which proliferation was significantly (p < 0.05) reduced compared to MT", "setting": "[10]; exposed to IC50, 24–168 h", "result": "≥ 24", "unit": "h"}, {"measurement": "IC50", "setting": "promastigotes", "result": 100, "unit": "µM"}, {"measurement": "cytotoxicity in fibroblasts and macrophages", "setting": "[11]", "result": "no cytotoxicity observed"}, {"measurement": "increase in ROS levels", "setting": "L. amazonensis", "result": 2, "unit": "fold"}, {"measurement": "reduction in ΔΨm", "setting": "L. amazonensis", "result": 60, "unit": "%"}, {"measurement": "cell death (7-AAD) in ex vivo amastigotes", "setting": "[12]", "result": "highest mortality rate"}, {"measurement": "viability of promastigotes (AV/PI)", "setting": "[13]", "result": 12.89, "unit": "%"}, {"measurement": "IC50", "setting": "[14]", "result": "15.7 ± 2.23", "unit": "µM"}, {"measurement": "TMRE MFI, Promastigotes High Population", "setting": "[15]", "result": "56,878.47"}, {"measurement": "TMRE MFI, Promastigotes Low Population", "setting": "[15]", "result": "2737.60 *"}, {"measurement": "VIΔΨm, Promastigotes High Population", "setting": "[15]; (MT − MC)/MC", "result": "0.02 ± 0.03"}, {"measurement": "VIΔΨm, Promastigotes Low Population", "setting": "[15]; (MT − MC)/MC, negative = depolarization", "result": "−0.41 ± 0.05"}, {"measurement": "loss of potential (ΔΨm) in HP ex vivo amastigotes / mitochondrial depolarization", "setting": "[16]; IC50, 24 h", "result": "up to 61%"}, {"measurement": "decrease of ΔΨm considering both subpopulations", "setting": "[16]; ex vivo amastigotes, LP plus HP, IC50, 24 h", "result": 98, "unit": "%"}, {"measurement": "TMRE MFI, ex vivo Amastigotes High Population", "setting": "[16]; exposed to IC50, 24 h", "result": "317,106.50"}, {"measurement": "TMRE MFI, ex vivo Amastigotes Low Population", "setting": "[16]; exposed to IC50, 24 h", "result": 3237.43}, {"measurement": "VIΔΨm, ex vivo Amastigotes High Population", "setting": "[16]; [18]", "result": "−0.61 ± 0.18"}, {"measurement": "VIΔΨm, ex vivo Amastigotes Low Population", "setting": "[16]; [18]", "result": "−0.37 ± 0.32"}]}
